Results from patent US20250304576A1 (Cancer Research Technology Limited, priority 2022, published 2025).

What was measured:
[1] = biological target: T1, Recombinant IKKα (Homo sapiens, UniProt O15111); assay: DELFIA IKKα kinase assay (apparent Ki, Cheng-Prusoff); assay type: biochemical
T1 construct: purchased Millipore, Dundee, UK
T1 sequence (O15111 1-745): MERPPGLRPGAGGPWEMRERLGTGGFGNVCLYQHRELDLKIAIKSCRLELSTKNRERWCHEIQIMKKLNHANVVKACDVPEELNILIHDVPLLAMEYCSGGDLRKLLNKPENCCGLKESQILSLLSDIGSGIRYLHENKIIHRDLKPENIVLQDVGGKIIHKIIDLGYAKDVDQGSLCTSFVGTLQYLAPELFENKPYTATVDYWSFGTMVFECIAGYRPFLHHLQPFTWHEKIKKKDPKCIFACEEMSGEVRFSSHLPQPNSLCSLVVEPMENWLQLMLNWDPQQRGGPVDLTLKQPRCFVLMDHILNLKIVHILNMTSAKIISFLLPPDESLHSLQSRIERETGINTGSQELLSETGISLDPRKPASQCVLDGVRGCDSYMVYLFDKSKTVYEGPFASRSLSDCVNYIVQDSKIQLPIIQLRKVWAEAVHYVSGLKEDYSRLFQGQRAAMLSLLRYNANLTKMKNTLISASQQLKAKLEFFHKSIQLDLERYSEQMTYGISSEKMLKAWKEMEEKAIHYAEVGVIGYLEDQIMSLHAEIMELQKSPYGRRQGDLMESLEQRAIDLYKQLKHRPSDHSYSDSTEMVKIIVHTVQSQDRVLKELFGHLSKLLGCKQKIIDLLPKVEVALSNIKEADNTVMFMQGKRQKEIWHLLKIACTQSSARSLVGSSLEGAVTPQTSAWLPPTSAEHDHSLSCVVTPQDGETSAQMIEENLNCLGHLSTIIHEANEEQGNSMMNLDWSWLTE
Description: (§1) IKKα and IKKβ inhibitory activity was determined using three different assays: a dissociation enhanced ligand fluorescent immunoassay (DELFIA) based on the protocol of HTScan™ IKKβ Kinase Assay (Cell Signaling Technology, USA); an Adapta IKKα assay (performed by Life Technologies); a Z′-LYTE™ IKKβ assay (performed by Life Technologies).
(§2) Recombinant IKKα or IKKβ, 37 nM, (Millipore, Dundee, UK) was incubated with IηB-α (Ser32) (New England Biolabs, Hitchin, UK) biotinylated peptide substrate (0.375 μM) and 40 μM ATP in assay buffer (40 mM Tris-HCl (pH 7.5), 20 mM MgCl2, EDTA 1 mM, DTT 2 mM and BSA 0.01 mg/ml) in a V-well 96-well plate in the presence and absence of test compound. The assay plate was incubated for 60 minutes at 30° C. after which the kinase reaction was quenched by the addition of 50 mM EDTA, pH8. The resulting mixture was transferred to a streptavidin coated 96-well plate (Perkin Elmer, Beaconsfield, UK) and incubated for 1 hour at 30° C. to immobilise the substrate peptide. After three washes with wash buffer (0.01 M phosphate buffered saline (PBS), 0.05% Tween −20, pH 7.4) a primary antibody against the phosphorylated substrate (phospho-IηB-a) (Ser32/36) (5A5) Mouse mAb (New England Biolabs, Hitchin, UK) (1:1000 dilution with 1% bovine serum albumin (BSA) in wash buffer) was added and incubated at 37° C. for 2 h.
(§3) After a further three washes, a secondary europiated antibody (Eu-N1 labelled anti-mouse IgG, (Perkin Elmer, Beaconsfield, UK) diluted 1:500 in 1% BSA/wash buffer) was added and incubated at 30° C. for 30 minutes. After a further five washes, DELFIA enhancement solution—(Perkin Elmer, Beaconsfield UK) was added and allowed to incubate for 10 min at room temperature, protected from light, to facilitate the chemifluorescent detection. The relative fluorescence units (RFU) signal were measured on a Wallac Victor 1420 multilabel counter (Perkin Elmer, Beaconsfield, UK), in time-resolved fluorescence mode. The counter was set at an excitation wavelength of 340 nm with a 400 μs delay before detecting emitted light at 615 nm. The apparent Ki of the […] was calculated for each compound using the Cheng-Prusoff Equation.
(§4) The IKKα and IKKβ figures quoted in non-italicised form are from the DELFIA assay described above.

[2] = biological target: T2, Recombinant IKKβ (Homo sapiens, UniProt O14920); assay: DELFIA IKKβ kinase assay (apparent Ki, Cheng-Prusoff); assay type: biochemical
T2 construct: purchased Millipore, Dundee, UK
T2 sequence (O14920 1-756): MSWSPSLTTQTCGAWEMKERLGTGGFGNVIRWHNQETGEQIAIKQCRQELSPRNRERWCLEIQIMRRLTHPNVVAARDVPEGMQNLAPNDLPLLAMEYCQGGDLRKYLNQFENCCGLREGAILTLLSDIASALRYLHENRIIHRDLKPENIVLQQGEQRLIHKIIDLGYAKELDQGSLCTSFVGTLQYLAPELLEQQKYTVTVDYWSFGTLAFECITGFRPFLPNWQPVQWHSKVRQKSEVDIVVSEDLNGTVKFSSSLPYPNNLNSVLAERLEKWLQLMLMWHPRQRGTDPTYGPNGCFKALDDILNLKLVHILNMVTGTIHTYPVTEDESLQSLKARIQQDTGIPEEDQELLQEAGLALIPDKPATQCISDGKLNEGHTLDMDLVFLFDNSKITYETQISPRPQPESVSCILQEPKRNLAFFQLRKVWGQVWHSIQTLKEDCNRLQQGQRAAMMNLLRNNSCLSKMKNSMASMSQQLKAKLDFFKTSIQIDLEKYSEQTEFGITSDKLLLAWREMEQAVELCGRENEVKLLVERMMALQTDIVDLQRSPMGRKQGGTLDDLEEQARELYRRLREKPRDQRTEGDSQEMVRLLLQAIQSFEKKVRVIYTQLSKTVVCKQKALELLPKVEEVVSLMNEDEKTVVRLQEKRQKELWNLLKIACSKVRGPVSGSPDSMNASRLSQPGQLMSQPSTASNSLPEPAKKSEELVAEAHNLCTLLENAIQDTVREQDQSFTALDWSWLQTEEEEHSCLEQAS
Description: as §1, §2, §3, §4

[3] = non-italicised figure: DELFIA assay
[4] = DELFIA assay (first line of an example)

Structure (SMILES)	Ki [1, 3] [nM]	Ki [2, 3] [nM]	Ki [1, 4] [nM]	Ki [2, 4] [nM]
Cn1nnc(Nc2cc(-c3cc(C#CC(C)(C)C)c4[nH]nc(N)c4c3)ccn2)n1 [Example 320, 7-(3,3-Dimethylbut-1-yn-1-yl)-5-(2-((2-methyl-2H-tetrazol-5-yl)amino)pyridin-4-yl)-1H-indazol-3-amine]	–	–	5	18.5
CC(C)(C)C#Cc1cc(-c2ccnc3[nH]c(CN4CCOCC4)cc23)cc2c(N)n[nH]c12 [Example 279, 7-(3,3-Dimethylbut-1-yn-1-yl)-5-(2-(morpholinomethyl)-1H-pyrrolo[2,3-b]pyridin-4-yl)-1H-indazol-3-amine]	–	–	13	–
CC(=O)Nc1cc(-c2cc(C#CC(C)(C)C)c3[nH]nc(N)c3c2)cc(F)n1 [Example 195, N-(4-(3-amino-7-(3,3-dimethylbut-1-yn-1-yl)-1H-indazol-5-yl)-6-fluoropyridin-2-yl)acetamide]	–	–	21800	–
Nc1n[nH]c2ccc(-c3ccnc(NC(=O)Nc4cccc(Oc5ccccc5)c4)c3)cc12 [Example 56, 1-(4-(3-Amino-1H-indazol-5-yl)pyridin-2-yl)-3-(3-phenoxyphenyl)urea]	237	3500	–	–
CC(C)(C)C#Cc1cc(-c2ccnc(Nc3nc(C(F)(F)F)co3)c2)cc2c(N)n[nH]c12 [Example 316, N-(4-(3-Amino-7-(3,3-dimethylbut-1-yn-1-yl)-1H-indazol-5-yl)pyridin-2-yl)-4-(trifluoromethyl)oxazol-2-amine]	–	–	335	> 30000
CC(C)(C)C#Cc1cc(-c2ccnc(NC3CCOC3)c2)cc2c(N)n[nH]c12 (stereo not shown) [Example 322, 7-(3,3-Dimethylbut-1-yn-1-yl)-5-(2-((tetrahydrofuran-3-yl)amino)pyridin-4-yl)-1H-indazol-3-amine]	–	–	45	3130
Cn1cc(Nc2cc(-c3cc(C#CC(C)(C)C)c4[nH]nc(N)c4c3)ccn2)cn1 [Example 303, 7-(3,3-dimethylbut-1-yn-1-yl)-5-(2-((1-methyl-1H-pyrazol-4-yl)amino)pyridin-4-yl)-1H-indazol-3-amine]	–	–	36	68
Nc1nccc(-c2ccc3[nH]nc(N)c3c2)c1CCC1(O)CCCCC1 [Example 102, 1-(2-(2-Amino-4-(3-amino-1H-indazol-5-yl)pyridin-3-yl)ethyl)cyclohexan-1-ol]	8980	–	–	–
CC(C)(C)C#Cc1cc(-c2ccnc(N)n2)cc2c(N)n[nH]c12 [Example 143, 5-(2-Aminopyrimidin-4-yl)-7-(3,3-dimethylbut-1-yn-1-yl)-1H-indazol-3-amine]	517	–	–	–
CC(C)(C)C#Cc1cc(-c2cc(N)nc(N)c2)cc2c(N)n[nH]c12 [Example 151, 4-(3-Amino-7-(3,3-dimethylbut-1-yn-1-yl)-1H-indazol-5-yl)pyridine-2,6-diamine]	931	–	–	–
Nc1nccc(-c2ccc3[nH]nc(N)c3c2)c1CCCCO [Example 101, 4-(2-Amino-4-(3-amino-1H-indazol-5-yl)pyridin-3-yl)butan-1-ol]	5580	–	–	–
CC(C)(C)C#Cc1cc(-c2ccnc(NS(C)(=O)=O)c2)cc2c(N)n[nH]c12 [Example 193, N-(4-(3-Amino-7-(3,3-dimethylbut-1-yn-1-yl)-1H-indazol-5-yl)pyridine-2-yl)methanesulfonamide]	–	–	5520	–
CC(C)(C)C#Cc1cc(-c2cc(N)nc(F)c2)cc2c(N)n[nH]c12 [Example 150, 5-(2-Amino-6-fluoropyridin-4-yl)-7-(3,3-dimethylbut-1-yn-1-yl)-1H-indazol-3-amine]	573	–	–	–
Nc1nccc(-c2ccc3[nH]nc(N)c3c2)c1CCCCCO [Example 103, 5-(2-Amino-4-(3-amino-1H-indazol-5-yl)pyridin-3-yl)pentan-1-ol]	24800	–	–	–

The remaining molecules from weak to strong by Ki [1, 3], led by results:

Ki [1, 3] [nM]	Ki [2, 3] [nM]	Ki [1, 4] [nM]	Ki [2, 4] [nM]	Structure (SMILES)
186	4610	–	–	Nc1cc(-c2cc(C#CCCO)c3[nH]nc(N)c3c2)ccn1 [Example 139, 4-(3-Amino-5-(2-aminopyridin-4-yl)-1H-indazol-7-yl)but-3-yn-1-ol]
152	357	–	–	Nc1n[nH]c2ccc(-c3ccnc(NC(=O)NCc4ccccc4)c3)cc12 [Example 45, 1-(4-(3-Amino-1H-indazol-5-yl)pyridin-2-yl)-3-benzylurea]
56	1590	–	–	NC(=O)c1ccc(-c2cc(-c3ccnc(N)c3)cc3c(N)n[nH]c23)cc1 [Example 120, 4-(3-Amino-5-(2-aminopyridin-4-yl)-1H-indazol-7-yl)benzamide]
38	838	–	–	Nc1n[nH]c2ccc(-c3ccnc(NC(=O)NCc4ccccn4)c3)cc12 [Example 47, 1-(4-(3-Amino-1H-indazol-5-yl)pyridin-2-yl)-3-(pyridin-2-ylmethyl)urea]
26	316	–	–	Nc1cc(-c2cc(-c3cncs3)c3[nH]nc(N)c3c2)ccn1 [Example 132, 5-(2-Aminopyridin-4-yl)-7-(thiazol-5yl)-1H-indazol-3-amine]
22	1960	–	–	CC(C)(C)C#Cc1cc(-c2ccnc(NCCC#N)c2)cc2c(N)n[nH]c12 [Example 159, 3-((4-(3-Amino-7-(3,3-dimethylbut-1-yn-1-yl)-1H-indazol-5-yl)pyridin-2-yl)amino)propanenitrile]
22	1470	–	–	Nc1n[nH]c2ccc(-c3ccnc(NCCCCO)c3)cc12 [Example 22, 4-(4-(3-Amino-1H-indazol-5-yl)pyridin-2-ylamino)butan-1-ol]
22	–	–	–	CC(=O)Nc1cc(-c2cc(C#Cc3ccccc3)c3[nH]nc(N)c3c2)ccn1 [Example 178, N-(4-(3-Amino-7-(phenylethynyl)-1H-indazol-5-yl)pyridin-2-yl)acetamide]
19	–	–	–	CC1(C#Cc2cc(-c3ccnc(NC4CC4)c3)cc3c(N)n[nH]c23)COC1 [Example 176, 5-(2-(Cyclopropylamino)pyridine-4-yl)-7-((3-methyloxetan-3-yl)ethynyl)-1H-indazol-3-amine]
12	100	–	–	Nc1cc(-c2cc(-c3cccc(C=O)c3)c3[nH]nc(N)c3c2)ccn1 [Example 111, 3-(3-Amino-5-(2-aminopyridin-4-yl)-1H-indazol-7-yl)benzaldehyde]
